Entries after “also recorded” stand apart in the source; their conditions may differ. Read-outs that look alike come from different tables or passages of the source.
Experiments:
SRS-A [1] = test: Test Procedure 2: inhibition of SRS-A-induced bronchoconstriction in anesthetized guinea pigs (Konzett-Rossler); type: in vivo, guinea pig; settings: for % Inhibition (duration of anti-SRS-A effect) / Ratio of Peak Response to SRS-A in Paired Med./Co. Guinea Pigs ± S.E.: 10 mg/kg p.o.
Text: SRS-A was harvested as described in Test Procedure 1 described hereinabove. A slightly modified Konzett-Rossler preparation [Arch. […] Guinea pigs weighing 350 to 450 g were anesthetized ip with 1.5 g/kg urethane. The jugular vein and trachea were cannulated and the guinea pigs were artificially respired at a rate of 40 strokes/minute. […] A side arm of the inflationary air cannula was connected to a pressure transducer and resistance to pulmonary inflation continuously recorded. […] Studies with SRS-A commenced after each guinea pig had attained maximum bronchoconstrictor response to histamine. […] The effects of the test compounds were studied by measuring SRS-A-induced bronchoconstriction side-by-side in two guinea pigs, one medicated and one control. Subsequent medicated/control pairs were alternated on two respiratory pumps. In this manner, the gradual decomposition of SRS-A and differences between the two pump/recorder systems, if any, were controlled. The dose (volume) of each sample of SRS-A was adjusted in each pair to keep the peaks of increases in bronchial resistance in control guinea pigs within 13 to 40 mmHg. Bronchoconstriction following injection of SRS-A was measured two ways; as the peak increase in resistance to inflation and, in view of the occasional irregular bronchoconstriction response curves following injection of SRS-A, as the sum of increases in bronchoconstriction over 10 minutes (pressure/time units). Pressure/time units were calculated by measuring the area under the curve of inflationary resistance where ordinates were set at 10 mm of pen excursion/10 mm pressure Hg and the abscissas were set at 15 mm of paper travel/minute. […] SRS-A-induced bronchoconstriction (increase in resistance) was calculated as the area under the curve and over the normal base line of resistance to inflation. […] The effects of the test compounds upon SRS-A-induced bronchoconstriction were expressed as ratios of the peaks and as ratios of the pressure/time units between the paired medicated and control guinea pigs. The consistency of paired responses to SRS-A in nonmedicated guinea pigs was determined in the same manner, by alternating the ratios of the results of guinea pigs on pumps one and two. […] SRS-A was injected 5 minutes after these latter injections. Compound b was prepared as a solution in 2% N-methylglucamine and used within 3 hours. […] Control guinea pigs received injections of the respective solvent vehicles. In order to compare the activities of compound b following iv and po routes of administration, compound b was also administered orally. […] Control guinea pigs received 2% N-methylglucamine. Fifteen minutes later, the guinea pigs were anesthetized, cannulated, and prepared for injections of SRS-A as described. The procedure was timed so that SRS-A was injected 1 hour after the oral administration of compound b. In a separate experiment, using the same methodology, the duration anti-SRS-A activity of compound b was determined after oral administration. Compound b was finely ground in a tissue homogenizer and prepared as a suspension in 0.5% gum tragacanth. A dose of 10 mg/kg was administered and anti-SRS-A effect studied at 1, 4 and 7 hr postmedication. The ratios of peak increases in intratracheal pressure between paired medicated and control guinea pigs was used to calculate percent inhibition.

SRS-A [2] = test: Test Procedure 1: antagonism of SRS-A-induced bronchoconstriction in unanesthetized guinea pigs; type: in vivo, guinea pig
Procedure: The test compounds were administered orally to four guinea pigs/group 1 hour before the SRS-A challenge. The test compounds were prepared as suspensions in 1% gum tragacanth. Bronchoconstriction was graded 1+ to 3+ according to severity (1+ denoted restlessness and slight thoracic dyspnea, 2+ denoted moderate thoracic dyspnea and 3+ denoted convulsive dyspnea, regardless of whether the guinea pig died of asphyxiation or recovered).

bradykinin [3] = test: animal or person; settings: Cavia porcellus, iv, read-out: lowest dose that resulted in significant inhibition
Procedure: (§1) Antagonism of bradykinin-induced bronchoconstriction in guinea pigs was determined by measuring increases in resistance to artificial pulmonary inflation (Konzett-Rossler preparation). […] Due to large variations in bronchoconstricting responses among individual guinea pigs, each guinea pig serves as its own control and was challenged with bradykinin twice. The second response to bradykinin was expressed as percent of the first response to bradykinin. […] All guinea pigs having a first bradykinin response of less than 12 mm Hg were rejected as poor responders. […] In order to augment the bronchoconstrictor response, each guinea pig received 100 mcg propranolol/kg, iv, 5 minutes before the first injection of bradykinin (30 mcg/kg, iv). […] Five minutes after the injection of a test compound the guinea pigs received the second injection of bradykinin and the peak of the response determined. The effects of both test compounds were expressed as % inhibition of bradykinin-induced increase in bronchial resistance to forced inflation, as compared to the levels of bronchial resistance following iv administration of their respective solvent controls.

acetylcholine = test: Test Procedure 7: acetylcholine-induced bronchoconstriction in anesthetized guinea pigs; type: in vivo, guinea pig; settings: 100 mg/kg p.o.
Procedure: Guinea pigs, weighing 250-350 g were anesthetized with 1.5 g/kg i.p. of urethane and prepared for measurements of resistance to pulmonary inflation using a slightly modified Konzett-Rossler preparation (see Test Procedure 2). Histamine phosphate (5 μg/kg as base) was injected four times at 5 minute intervals in order to ascertain that the maximum bronchoconstrictor responsiveness has been obtained. Acetylcholine was injected intravenously at […] 5 minutes following the last injection of histamine and the increase in intratracheal pressure was recorded. Compound b or aminophylline (100 mg/kg p.o.) or the control vehicle were administered to five guinea pigs each, 1 hour before the injection of acetylcholine (1/2 hour before the anesthesia).

bradykinin [4] = test system: bradykinin
Procedure: as §1

[5] = suspension, 1 hr before test, P 0.01
[6] = suspension, 4 hr before test, P 0.01
[7] = p.o. 3.3 mg/kg, solution, 1 hour
[8] = p.o. 10 mg/kg, solution, 1 hour

COc1ccc2c(c1)c1c(n2C(=O)c2ccccc2)CCC(C(=O)O)C1 (stereo not drawn) [Compound b, 9-benzoyl-6-methoxy-1,2,3,4-tetrahydrocarbazole-3-carboxylic acid]
% Inhibition (duration of anti-SRS-A effect) (SRS-A [1]; [5]): 81% | Ratio of Peak Response to SRS-A in Paired Med./Co. Guinea Pigs ± S.E. (SRS-A [1]; [5]): 0.19 ± 0.05 | % Inhibition (duration of anti-SRS-A effect) (SRS-A [1]; [6]): 68% | Ratio of Peak Response to SRS-A in Paired Med./Co. Guinea Pigs ± S.E. (SRS-A [1]; [6]): 0.32 ± 0.08 | % Inhibition (duration of anti-SRS-A effect) (SRS-A [1]; suspension, 7 hr before test): 0% | Ratio of Peak Response to SRS-A in Paired Med./Co. Guinea Pigs ± S.E. (SRS-A [1]; suspension, 7 hr before test): 1.00 ± 0.15 | minimal effective dose (SRS-A [1]; Cavia porcellus, intravenous, read-out: minimal active dose): 1 mg/kg | effect against SRS-A-induced bronchoconstriction (activity profile) (SRS-A [1]; guinea pigs): effectiveness | % Inhibition (sum of increase in resistance over 10 min) (SRS-A [1]; i.v. 0.3 mg/kg): 0% | Sum of Increase in Resist. to Infl. over 10 min, Avg Ratio Med/Co. Pairs ± S.E. (SRS-A [1]; i.v. 0.3 mg/kg): 1.18 ± .33 | % Inhibition (peak increase in resistance) (SRS-A [1]; i.v. 0.33 mg/kg): 0% | Peak Increase in Resistance to Inflation, Avg Ratio of Med/Co. Pairs ± S.E. (SRS-A [1]; i.v. 0.33 mg/kg): 1.10 ± .19 | % Inhibition (peak increase in resistance) (SRS-A [1]; i.v. 1.0 mg/kg): 54% | % Inhibition (sum of increase in resistance over 10 min) (SRS-A [1]; i.v. 1.0 mg/kg): 45% | Peak Increase in Resistance to Inflation, Avg Ratio of Med/Co. Pairs ± S.E. (SRS-A [1]; i.v. 1.0 mg/kg): 0.44 ± .07 | Sum of Increase in Resist. to Infl. over 10 min, Avg Ratio Med/Co. Pairs ± S.E. (SRS-A [1]; i.v. 1.0 mg/kg): 0.55 ± .09 | % Inhibition (peak increase in resistance) (SRS-A [1]; i.v. 3.3 mg/kg): 89% | % Inhibition (sum of increase in resistance over 10 min) (SRS-A [1]; i.v. 3.3 mg/kg): 83% | Peak Increase in Resistance to Inflation, Avg Ratio of Med/Co. Pairs ± S.E. (SRS-A [1]; i.v. 3.3 mg/kg): 0.11 ± .04 | Sum of Increase in Resist. to Infl. over 10 min, Avg Ratio Med/Co. Pairs ± S.E. (SRS-A [1]; i.v. 3.3 mg/kg): 0.17 ± .05 | % Inhibition (peak increase in resistance) (SRS-A [1]; i.v. 10 mg/kg): 95% | % Inhibition (sum of increase in resistance over 10 min) (SRS-A [1]; i.v. 10 mg/kg): 86% | Peak Increase in Resistance to Inflation, Avg Ratio of Med/Co. Pairs ± S.E. (SRS-A [1]; i.v. 10 mg/kg): 0.05 ± .03 | Sum of Increase in Resist. to Infl. over 10 min, Avg Ratio Med/Co. Pairs ± S.E. (SRS-A [1]; i.v. 10 mg/kg): 0.14 ± .04 | inhibition of SRS-A-induced increases in resistance to inflation (SRS-A [1]; intravenous): inhibited SRS-A-induced increases in resistance to inflation in a dose-related manner | potency relative to phenylbutazone, times more potent (95% confidence limits) (SRS-A [1]; intravenous, calculated by peaks of increases in resistance): 3.8 (95% confidence limits of 1.8 to 7.8) times | absorption from the GI tract (SRS-A [1]; oral solution in 2% N-methylglucamine, suggested by activity ratio): readily absorbed from the GI tract | inhibition of SRS-A-induced bronchoconstriction (SRS-A [1]; oral solutions): dose-related inhibition | % Inhibition (peak increase in resistance) (SRS-A [1]; [7]): 36% | % Inhibition (sum of increase in resistance over 10 min) (SRS-A [1]; [7]): 47% | Peak Increase in Resistance to Inflation, Avg Ratio of Med/Co. Pairs ± S.E. (SRS-A [1]; [7]): 0.64 ± .13 | Sum of Increase in Resist. to Infl. over 10 min, Avg Ratio Med/Co. Pairs ± S.E. (SRS-A [1]; [7]): 0.53 ± .13 | % Inhibition (peak increase in resistance) (SRS-A [1]; [8]): 87% | % Inhibition (sum of increase in resistance over 10 min) (SRS-A [1]; [8]): 92% | Sum of Increase in Resist. to Infl. over 10 min, Avg Ratio Med/Co. Pairs ± S.E. (SRS-A [1]; [8]): 0.08 ± .03 | duration of inhibition of SRS-A-induced bronchoconstriction (SRS-A [1]; single oral dose 10 mg/kg, suspension): 4 h | iv/po activity ratio (po AED50/iv AED50) (SRS-A [1]; solution in 2% N-methylglucamine): 2.6 | Incidence of Severe Bronchospasms, % (SRS-A [2]; 0.4 mg/kg p.o.): 75% | Incidence of Severe Bronchospasms, No. Bronchosp./No. Tested (SRS-A [2]; 0.4 mg/kg p.o.): 15/20 | Incidence of Severe Bronchospasms, % (SRS-A [2]; 1.6 mg/kg p.o.): 42% | Incidence of Severe Bronchospasms, No. Bronchosp./No. Tested (SRS-A [2]; 1.6 mg/kg p.o.): 8/19 | inhibition of severe SRS-A induced bronchospasm (SRS-A [2]; 6.2 mg/kg oral): completely inhibited | Incidence of Severe Bronchospasms, % (SRS-A [2]; 6.2 mg/kg p.o.): 0% | Incidence of Severe Bronchospasms, No. Bronchosp./No. Tested (SRS-A [2]; 6.2 mg/kg p.o.): 0/19 | Incidence of Severe Bronchospasms, % (SRS-A [2]; 25 mg/kg p.o.): 4% | Incidence of Severe Bronchospasms, No. Bronchosp./No. Tested (SRS-A [2]; 25 mg/kg p.o.): 1/23 | Incidence of Severe Bronchospasms, % (SRS-A [2]; 100 mg/kg p.o.): 0% | Incidence of Severe Bronchospasms, No. Bronchosp./No. Tested (SRS-A [2]; 100 mg/kg p.o.): 0/20 | Incidence of Severe Bronchospasms, % (SRS-A [2]; 400 mg/kg p.o.): 0% | Incidence of Severe Bronchospasms, No. Bronchosp./No. Tested (SRS-A [2]; 400 mg/kg p.o.): 0/10 | ED50 (SRS-A [2]; Cavia porcellus, po, 1 hour before SRS-A, read-out: AED50): 2.3 mg/kg | Potency (Phenylbutazone = 1) (95% confidence limits) (SRS-A [2]; p.o., 1 hour before SRS-A): 4.0 (2.1-8.2) | minimal effective dose (bradykinin [3]): 1 mg/kg | % Inhibition (acetylcholine): 9% | Peak Increase in Intracheal Pressure, mm Hg (acetylcholine): 21 ± 4 mm Hg | effect against acetylcholine-induced bronchoconstriction (acetylcholine): inactive; also recorded: ineffectiveness | effect against bradykinin-induced bronchoconstriction (activity profile) (bradykinin [4]; guinea pigs): effectiveness | inhibition of bradykinin-induced increases in bronchial resistance (bradykinin [4]; iv): inhibited bradykinin-induced increases in bronchial resistance to inflation in a dose-related manner | % Inhibition (bradykinin [4]; iv 0.33 mg/kg): 12% | Average Increase In Bronchial Resistance (2nd Response in % of 1st Response ± S.E.) (bradykinin [4]; iv 0.33 mg/kg): 76 ± 13% | % Inhibition (bradykinin [4]; iv 1.0 mg/kg): 48% | Average Increase In Bronchial Resistance (2nd Response in % of 1st Response ± S.E.) (bradykinin [4]; iv 1.0 mg/kg): 45 ± 7% | % Inhibition (bradykinin [4]; iv 3.3 mg/kg): 81% | Average Increase In Bronchial Resistance (2nd Response in % of 1st Response ± S.E.) (bradykinin [4]; iv 3.3 mg/kg): 16 ± 3% | % Inhibition (bradykinin [4]; iv 10.0 mg/kg): 84% | Average Increase In Bronchial Resistance (2nd Response in % of 1st Response ± S.E.) (bradykinin [4]; iv 10.0 mg/kg): 14 ± 5% | % Inhibition (bradykinin [4]; iv 33.0 mg/kg): 93% | Average Increase In Bronchial Resistance (2nd Response in % of 1st Response ± S.E.) (bradykinin [4]; iv 33.0 mg/kg): 6 ± 4% | inhibition of bradykinin-induced bronchoconstriction (bradykinin [4]; iv 3.3, 10 and 33 mg/kg): nearly complete inhibition
